From patent US5958918A, “Substituted (sulfinic acid, sulfonic acid, sulfonylamino or sulfinylamino) N-[(aminominomethyl)phenylalkyl]-azaheterocyclylamide compounds” (Rhone-Poulenc Rorer Pharmaceuticals Inc., priority 1997, dated 1999)
Counter-ions that a name gives are not always drawn.

Molecular target: factor Xa (Homo sapiens, UniProt P00742)
Experiment: Factor Xa inhibitor enzyme assay (purified enzyme, chromogenic peptide-p-nitroanilide substrate; apparent Ki by Cheng-Prusoff)
Assay type: biochemical
Method: Factor Xa Inhibitor: Enzyme Assay Methods
All enzyme assays are carried out at room temperature in 96-well microtiter plates using a final enzyme concentration of 1 nM. The concentrations of factor Xa and thrombin are determined by active site titration and the concentrations of all other enzymes are based on the protein concentration supplied by the manufacturer. […] Compound dilutions are added to wells containing buffer and enzyme and pre-equilibrated for between 5 and 30 minutes. […] Under these conditions, less than 10% of the substrate is utilized in all assays. […] The apparent Ki values are then determined according to the Cheng-Prusoff equation (IC50=Ki [1+[S]/Km]) assuming competitive inhibition kinetics.

Chain of factor Xa (P00742 235-488 limits assumed): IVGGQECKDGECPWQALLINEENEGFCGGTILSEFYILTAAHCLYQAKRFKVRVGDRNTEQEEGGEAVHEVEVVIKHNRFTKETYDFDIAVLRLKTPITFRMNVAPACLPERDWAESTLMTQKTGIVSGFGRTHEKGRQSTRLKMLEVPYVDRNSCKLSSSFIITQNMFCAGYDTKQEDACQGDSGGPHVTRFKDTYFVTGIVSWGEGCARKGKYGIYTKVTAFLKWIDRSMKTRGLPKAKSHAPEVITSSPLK
Chain of factor Xa (P00742 41-179 partner limits assumed): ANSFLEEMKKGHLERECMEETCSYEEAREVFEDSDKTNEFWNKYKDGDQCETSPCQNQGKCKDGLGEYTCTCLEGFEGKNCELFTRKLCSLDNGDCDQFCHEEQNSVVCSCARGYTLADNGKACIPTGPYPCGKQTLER

`N=C(N)c1cccc(CN2CC[C@H](NS(=O)(=O)c3ccc(-c4ccccn4)s3)C2=O)c1` [Example 7, 5-Pyrid-2-ylthiophene-2-sulfonic acid {1-[3-(aminoiminomethyl)benzyl]-2-oxopyrrolidin-3-(S)-yl}amide trifluoroacetate] gave a Ki of 100 nM.
